The subject of one data set is 2-AG levels in brain. As to the kind of experiment: 2-AG estimation in mouse brain after single intraperitoneal administration of Compound 74. Type of data set: in vivo, male C57BL/6 mice. The settings on record: for Mean 2AG Brain Concentration: 0.5 h. Here is the method: (§1) This experiment was performed to determine plasma pharmacokinetics and estimate 2-AG levels in male C57BL/6 mice brain following a single intraperitoneal administration of Compound-74 (Dose: 5, 15, 50 and 150 mg/kg). The experiment was repeated at 150 mg/kg on 3 separate test dates to obtain the data shown in FIG. 1A (plasma and brain concentration of Compound 74 30 minutes after IP injection), and on the first and third test dates to obtain the data shown in FIG. 1B (brain concentration of 2-AG30 minutes after IP injection of Compound 74).
(§2) Study Design: A total of thirty male mice were used into the study and divided in to five groups with six mice in each group (n=6 mice/group/treatment design). Animals in Group 1 to Group 4 were administered intraperitoneally with Compound 74 solution formulation at 5, 15, 50 and 150 mg/kg dose, respectively. Animals in Group 5 were administered intraperitoneally with vehicle at 2 mL/kg dose. Blood and brain samples were collected at 0.5 h post dose. Mice were euthanized by cervical dislocation and brain samples were dissected rapidly and snap frozen in liquid nitrogen, weighed and homogenized in 2 mL of acetonitrile containing 2-AGd5. Blood samples were centrifuged at 4000 rpm for 10 minutes at 4° C. Plasma was harvested and separated in pre-labeled tubes. All samples were stored below −70° C. until bioanalysis.
(§3) Analysis: Brain samples were processed for 2-AG estimation. 2-AG levels were the detected values. Plasma concentrations were determined by fit for purpose LC-MS/MS method. LLOQ: 5.09 ng/mL (Plasma and brain)

Data set [1] is described as follows: Plasma and brain concentrations after single intraperitoneal administration of Compound 74. To be noted: male, C57BL/6, mouse; for Kp at 0.5 h: brain/plasma, read-out: Brain Plama Ratio (Kp) range. Type of data set: in vivo, male C57BL/6 mice. Here is the method: as §1, §2, §3
Data set [2] addresses T1, human MAGL (Homo sapiens (Human), UniProt Q99685). The experiment in a line: MAGL reversible inhibition assay (washout). Type of data set: biochemical. The settings on record: for A: degree to which MAGL enzymatic activity returned following washout: pre-washout compound concentration: 1 μM. Here is the method: The reversible mechanism of MAGL inhibition of a test compound of Formula (I) can be determined. Flag-tagged MAGL enzyme will be immobilized on anti-Flag beads. Immobilized enzyme will be incubated+/−inhibitor at a dose that produces complete inhibition. Colorimetric substrate (4-NPA) will be added and the reaction monitored on a plate reader for 30 minutes to verify complete inhibition. Immobilized enzyme will then be washed thoroughly to remove the inhibitor, and fresh substrate will be added. The reaction will be monitored for an additional 30 minutes; returning enzymatic activity will indicate reversibility of inhibition.
MAGL enzyme was incubated for 30 minutes in the presence of 40× the IC50 concentration of inhibitor. Enzyme+inhibitor mix was then diluted 40-fold so that the final concentration of the inhibitor equaled the IC50 concentration. Substrate was added and the reaction was monitored for 30 minutes.
Target sequence in this assay (Q99685 whole entry): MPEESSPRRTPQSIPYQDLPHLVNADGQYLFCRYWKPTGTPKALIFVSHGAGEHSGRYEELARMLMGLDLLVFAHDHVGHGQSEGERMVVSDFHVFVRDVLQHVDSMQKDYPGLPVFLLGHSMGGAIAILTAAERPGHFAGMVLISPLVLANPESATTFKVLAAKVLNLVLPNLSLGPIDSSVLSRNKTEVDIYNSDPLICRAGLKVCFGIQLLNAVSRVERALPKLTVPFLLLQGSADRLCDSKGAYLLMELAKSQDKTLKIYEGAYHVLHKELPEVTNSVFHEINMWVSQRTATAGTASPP

Data set [3] addresses T1, human MAGL. The experiment in a line: MAGL inhibition potency assay with 4NPA substrate (methods of Table C). Type of data set: biochemical.
Target sequence in this assay (Q99685 2-303): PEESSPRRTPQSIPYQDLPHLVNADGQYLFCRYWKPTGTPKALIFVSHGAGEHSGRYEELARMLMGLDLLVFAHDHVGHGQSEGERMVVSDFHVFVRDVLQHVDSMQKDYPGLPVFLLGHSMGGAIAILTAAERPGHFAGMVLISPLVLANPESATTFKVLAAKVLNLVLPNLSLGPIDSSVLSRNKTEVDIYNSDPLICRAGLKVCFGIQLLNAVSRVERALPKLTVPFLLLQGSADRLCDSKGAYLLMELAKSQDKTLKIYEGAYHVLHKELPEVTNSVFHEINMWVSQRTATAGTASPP
Data set [4] has as its target T1, human MAGL. The description is as above. Type of data set: biochemical. To be noted: Method 1: Reaction Biology MAGL enzyme, 6 nM; read-out: MAGL Potency (Detection Method). The text has this: Cayman's Monoacylglycerol Lipase Inhibitor Screening Assay provides a method for screening human MAGL inhibitors. MAGL hydrolyzes 4-nitrophenylacetate resulting in a yellow product, 4-nitrophenol, with an absorbance of 405-412 nm. The monoacylglycerol lipase inhibitor screening assay kit from Cayman Chemical was used to measure the MAGL potency for the compounds in Table 3 and Table 4. Cayman's Monoacylglycerol Lipase Inhibitor Screening Assay provides a method for screening human MAGL inhibitors. MAGL hydrolyzes 4-nitrophenylacetate resulting in a yellow product, 4-nitrophenol, with an absorbance of 405-412 nm. MAGL Inhibition was measured by the following assay. Monoacylglycerol Lipase (MAGL) inhibition was measured using recombinant MAGL enzyme (aa 2-303 RBC, internal preparation) and the substrate 4-Nitrophenyl acetate (4NPA) (Sigma-Aldrich, N8130). Hydrolysis of the substrate in the presence of the enzyme was measured by absorbance at 405 nm. 10 μL of assay buffer (10 mM Tris pH 7.5, 1 mM EDTA, 0.9% DMSO) was added to a black 384-well non-binding plate with clear bottom (Greiner, 781906) for each reaction. […] DMSO control wells were included for reference. A 10.8 nM (1.8×) MAGL mix in assay buffer was prepared, with […] added to each reaction well, for a final assay concentration of 6 nM. No enzyme wells received 25 μL of buffer. Plate was incubated at room temperature for 30 minutes. 35 mM solution of 4NPA in methanol was prepared daily. A 4.5×4NPA substrate solution was prepared in assay buffer and 10 μL was added to each reaction well, for a final assay concentration of 0.25 mM. Plate was spun for 1 minute at 1000 rpm before measuring absorbance using a CLARIOstar plate reader (BMG Labtech). A kinetic reading at 405 nm was done every minute for 30 minutes. Data was analyzed using the linear slope of the reaction progress curve and the average of the no-enzyme wells (background) was subtracted from the data. The background-subtracted slope data was converted to % activity using the average of wells with enzyme and DMSO vehicle. IC50s were calculated using GraphPad software (Sigmoidal dose response, variable slope equation). […] Table 5 provides potency measurements of MAGL inhibition measured using the Potency Assay of Example 18 above, with the following modifications described in Table C. [table]
Target sequence in this assay (Q99685 2-303): as above

The target in a further data set is human recombinant FAAH (Homo sapiens (Human), UniProt O00519). As to the kind of experiment: FAAH counter screen (Fatty Acid Amide Hydrolase Inhibitor Screening Assay Kit). Type of data set: biochemical. Here is the method: MAGL inhibitor compounds were also counter-screened for FAAH inhibition potency using the following assay. Assessment of FAAH inhibition was performed using Fatty Acid Amide Hydrolase Inhibitor Screening Assay Kit (Cayman Item No. 10005196) following manufacture's instruction with some modifications. The kit utilizes human recombinant FAAH and the fluorescent substrate, AMC Arachidonoyl amide (AAMCA). 5 μL of assay buffer (125 mM Tris, pH 9.0, 1 mM EDTA, i.e. ethylenediaminetetraacetic acid) was added to a 384-well black plate (Corning, 3573). Test compounds and control inhibitor JZL-195 (Cayman Chemical, 13668) were tested in 10-concentration IC50 mode with 3-fold serial dilution at a starting concentration of 100 μM and 10 μM, respectively. 300 nL or 30 nL of test compounds were delivered into a 384-well black plate (Corning, 3573) using a Labcyte Echo, followed by addition of 15 μL of FAAH enzyme (Cayman, 700302) in assay buffer. After a 5-minute pre-incubation at room temperature, 10 μL of AAMCA was added in assay buffer to start the reaction. Final concentration of FAAH enzyme is not specified and AAMCA substrate was used at the 20 μM. After these dilutions, the final concentration of the test compounds ranged from 100 μM to 5.08 nM or 10 μM down to 0.508 nM. The reaction was allowed to progress for 60 minutes, while the plate was read on an Envision plate reader at an Ex/Em of 350/460 nm with readings every minute. The data was analyzed in Microsoft Excel, using the slope between 30 and 59 minutes. The average of the no-enzyme wells (background) was subtracted from the data. The background-subtracted slope data was converted to % activity using the average of wells with enzyme and DMSO vehicle. IC50 values were calculated using GraphPad software (Sigmoidal dose response, variable slope equation).
Compounds listed in Table D2 were tested in the FAAH Counterscreen of Example 19
(In general: The purpose of a counterscreen is to sort out artefacts and off-target activity.)

The mark [5] stands for this setting: Method 2: Cayman Chemical MAGL enzyme, 10 nM, read-out: MAGL Potency (Detection Method).
Where [6] appears, read: Method A: starting concentration of 100 μM.

Where two headings read alike, the source gives them in different places.

human recombinant FAAH, sequence (O00519 whole entry): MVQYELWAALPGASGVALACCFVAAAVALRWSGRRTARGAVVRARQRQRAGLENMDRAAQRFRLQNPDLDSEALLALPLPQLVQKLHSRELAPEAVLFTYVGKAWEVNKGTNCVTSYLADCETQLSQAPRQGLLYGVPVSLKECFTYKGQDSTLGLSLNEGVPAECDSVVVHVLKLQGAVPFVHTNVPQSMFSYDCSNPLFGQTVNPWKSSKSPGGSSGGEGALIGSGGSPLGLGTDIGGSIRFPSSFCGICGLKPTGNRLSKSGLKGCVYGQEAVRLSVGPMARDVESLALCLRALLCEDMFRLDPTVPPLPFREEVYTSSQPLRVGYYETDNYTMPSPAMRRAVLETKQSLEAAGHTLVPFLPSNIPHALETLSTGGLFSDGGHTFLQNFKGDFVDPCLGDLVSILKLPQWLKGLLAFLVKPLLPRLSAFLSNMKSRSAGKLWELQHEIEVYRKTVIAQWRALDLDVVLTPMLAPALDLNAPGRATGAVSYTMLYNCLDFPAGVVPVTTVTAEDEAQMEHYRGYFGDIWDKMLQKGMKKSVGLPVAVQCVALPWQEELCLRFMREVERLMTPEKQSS

Turning to `Cc1cc(C2CC3(C2)CN(C(=O)c2cc(O)ccc2F)C3)n(-c2ccccc2C)n1` [Compound 74, (2-fluoro-5-hydroxyphenyl) (6-(3-methyl-1-(o-tolyl)-1H-pyrazol-5-yl)-2-azaspiro[3.3]heptan-2-yl) methanone], the “Mean 2AG Brain Concentration” value is 13.13 nmol/g in the data set with 2-AG levels in brain (IP 5 mg/kg), 13.46 nmol/g with 2-AG levels in brain (IP 15 mg/kg), 42.35 nmol/g in the data set on 2-AG levels in brain (IP 50 mg/kg) and 120.02 nmol/g in the data set on 2-AG levels in brain (IP 150 mg/kg). Further, the “levels of 2-AG compared to baseline (vehicle treatment)” value is “elevated slightly” in the data set on 2-AG levels in brain (IP 5 and 15 mg/kg dose); “significant increase” in the data set with 2-AG levels in brain (IP 50 and 150 mg/kg dose groups). Moreover, the concentration at 0.5 h in data set [1] (brain, IP 5 mg/kg, read-out: Brain concentration range) lay within 16 to 19 ng/g; in data set [1] (brain, IP 15 mg/kg, read-out: Brain concentration range), 25 to 67 ng/g; in data set [1] (brain, IP 50 mg/kg, read-out: Brain concentration range) it was 34 to 1250 ng/g; in data set [1] (brain, IP 150 mg/kg, read-out: Brain concentration range), 2410 to 12100 ng/g; in data set [1] (plasma, IP 5 mg/kg, read-out: Plasma concentration range), 12 to 186 ng/mL; in data set [1] (plasma, IP 15 mg/kg, read-out: Plasma concentration range), 70 to 414 ng/mL. Further, the concentration at 0.5 h in data set [1] (plasma, IP 50 mg/kg, read-out: Plasma concentration range) was 447 to 14900 ng/mL; in data set [1] (plasma, IP 150 mg/kg, read-out: Plasma concentration range), 34900 to 70300 ng/mL. Besides, the Kp at 0.5 h was 0.51 to 0.68 in data set [1] (IP 5 mg/kg), 0.16 to 0.44 in data set [1] (IP 15 mg/kg), 0.06 to 0.08 in data set [1] (IP 50 mg/kg) and 0.07 to 0.2 in data set [1] (IP 150 mg/kg). On human MAGL [2], the “A: degree to which MAGL enzymatic activity returned following washout” value is 162. Further, the “B: % MAGL activity returning after washout” value on human MAGL [2] (relative to control, immediately following a 30 minute washout) was over 50%. For the same compound, the IC50 on human MAGL [3] (setting [5]) was under 50 nM; at human MAGL [3] (Method 3: Reaction Biology MAGL enzyme, 10 nM, read-out: MAGL Potency (Detection Method)), under 50 nM; on human MAGL [3] (Method 4: Cayman Chemical MAGL enzyme, 15 nM, read-out: MAGL Potency (Detection Method)), 50 to 150 nM; on human MAGL [3] (Method 5: Cayman Chemical MAGL enzyme, 25 nM, read-out: MAGL Potency (Detection Method)), under 50 nM; at human MAGL [4] it was under 50 nM.

For `O=C(c1cc(O)ccc1F)N1CC2(CC(n3cc(C4CC4)c(-c4ccccc4F)n3)C2)C1` [Compound 493], the “A: degree to which MAGL enzymatic activity returned following washout” value at human MAGL [2] amounted to 47. The IC50 at human recombinant FAAH (Method B: starting concentration of 10 μM) is over 10000 nM.

“(2-fluoro-5-hydroxyphenyl) (6-(3-methyl-1-(o-tolyl)-1H-pyrazol-5-yl)-2-azaspiro[3.3]hept-5-en-2-yl) methanone [Compound 120]”: the IC50 was over 10000 nM on human recombinant FAAH (setting [6]) and 150 to 500 nM on human MAGL [3] (setting [5]).

`COc1ccc(F)c(C(=O)N2CC3(CC(c4cc(C)nn4-c4ccccc4C)C3)C2)c1` [Compound 123, (2-fluoro-5-methoxyphenyl)(6-(3-methyl-1-(o-tolyl)-1H-pyrazol-5-yl)-2-azaspiro[3.3]heptan-2-yl)methanone]: the IC50 is over 10000 nM at human recombinant FAAH (setting [6]) and over 10000 nM at human MAGL [3] (Method 2: Cayman Chemical MAGL enzyme, 10 nM, read-out: Potency (MAGL inhibition)).

In the case of `Cc1cc(C2CC3(C2)CN(C(=O)c2c(F)ccc(O)c2F)C3)n(-c2ccccc2C)n1` [Compound 127, (2,6-difluoro-3-hydroxyphenyl)(6-(3-methyl-1-(o-tolyl)-1H-pyrazol-5-yl)-2-azaspiro[3.3]heptan-2-yl)methanone], on human recombinant FAAH (setting [6]), the IC50 is over 10000 nM.

These data come from patent US20250170100A1, “MONOACYLGLYCEROL LIPASE INHIBITORS AND USE THEREOF FOR THE TREATMENT OF ANXIETY AND RELATED CONDITIONS” (Psy Therapeutics, Inc., priority 2021, published 2025).
